Assay [1] deals with rats with SNI. Briefly: Mechanical allodynia (von Frey test) after spared nerve injury. It counts as in vivo, male Wistar rats. As to the method: (§1) Animals. The experiments were performed on male Wistar rats weighing 250 g (six weeks). All animals were housed in standardized animal facilities under a 12 h light/dark cycle (lights on at 7 AM) with ad libitum access to food and water. All surgeries and experimental procedures were performed during the light cycle. Experimental protocols were approved by the Animal Ethics Committee of the local institutional committee for animal use and care (McGill University, Qc, Canada). These protocols follow ethical guidelines for investigation of experimental pain in conscious animals of the IASP, the Canadian Institute of Health Research guidelines for animal care and scientific use.
(§2) Spared nerve injury (SNI). SNI was performed according to the method of Decosterd and Woolf^35. Rats were deeply anaesthetized with isofluorane (5%), anaesthesia was confirmed by the absence of a nociceptive reflex reaction to a paw pinch. The sciatic nerve was exposed at mid-thigh level distal to the trifurcation and freed of connective tissue; the three peripheral branches (sural, common peroneal, and tibial nerves) of the sciatic nerve were exposed without stretching nerve structures. Both tibial and common peroneal nerves were ligated and transected together. Carprofen (5 mg/kg) was administrated subcutaneously pre-surgery as well as three days every 24 hours post-surgery as analgesic. After SNI, each rat was housed in its home cage for 15 days until the neuropathy is developed.
Mechanical allodynia. On day 15 after SNI, mechanical allodynia was assessed via von Frey test^38. Rats were placed in a test chamber, and they were allowed to acclimate for 60 minutes. Tactile allodynia was determined by measuring paw withdrawal thresholds in response to mid-plantar hind paw stimuli with Calibrated von Frey filaments^36. These filaments are of a logarithmically incremental stiffness corresponding to an applied force ranging from 0.4 to 15 g. Every filament was applied during 10 seconds in the hind paw to measure the withdrawal threshold. The 2.0 g force filament was applied first; in the presence of a response, the next smaller filament was applied. In the absence of a response, the next higher filament was applied. After the first change in response, the test continued until six responses were collected. The paw withdrawal threshold was then converted to the cutaneous nociceptive threshold by using the “up-down” method^39. The stimulus intensity (filament stiffness) required to produce a response in 50% of the applications for each animal was defined as 50% withdrawal threshold (expressed in g). The 50% withdrawal threshold was determined according to the following equation: 50% Threshold (g)=(10^ [Xf+kδ])/10,000. Where Xf is the value of the last von Frey filament used (in logarithmic units), k is the correction factor based on the response patterns of a calibration table and the tabulated value based on the pattern of positive and negative responses, and δ indicates the average differences between stimuli in logarithmic units^38,39. In non-lesioned animals (naïve) a value 11.98-15 g was considered normal, while the presence of allodynia was considered when the 50% withdrawal threshold of the limb is less than 4 g. All nerve-ligated rats were verified to be allodynic before the experiments. Rats without allodynia were excluded.

Assay [2] deals with neuropathic rats. Briefly: EEG/EMG recording of wakefulness, NREM and REM sleep in neuropathic rats. The assay is classed as in vivo, male Wistar rats. The method, then: as §1, §2
EEG/EMG Implantation. Neuropathic rats (10 days after surgery) and naïve rats were placed in a stereotaxic frame following isoflurane-induced anesthesia (5%). Anaesthesia was confirmed by the absence of a nociceptive reflex reaction to a paw pinch. For EEG monitoring, three stainless-steel epidural electrodes were positioned through 1.5 mm burr holes: one over the parietal cortex on each side, and the third (as a reference) in the right prefrontal cortex. In rats, their respective locations relative to bregma were −2 mm anteroposterior (AP) and −3 mm lateral (L), −7 mm AP and −3 mm L, and −4.5 mm AP and +3 mm L, according to Paxinos and Watson. For EMG monitoring, three flexible stainless-steel wire electrodes, silicon insulation removed at the terminal 3-4 mm, were implanted into the neck muscles (two bilaterally and one in the middle). Wires were fused with the electrodes and the connectors were fixed to the skull with dental acrylic (Coltene/Whaledent). Carprofen (10mg/kg) was administrated subcutaneously pre-surgery as well as three days every 24 hours post-surgically as analgesic. Each rat was single-caged post-surgery and allowed to recover for the next 5 days^13. 24 hours after surgery, the rats were placed in the recording chamber and connected to a flexible 6-flat wire (3M Scotchflex™) in a freely moving manner for several hours during the subsequent 5 days. No recordings were performed, but tolerance to the cable and sleep behavior were observed. All rats from a home cage were also grouped for one hour each day for socialization to circumvent anxious-depressive-like behavior induced by social isolation^13.
Study design for EEG and EMG assessment. […] […] In another cohort of rats rimonabant (1 mg/kg) was also injected i.p. at 6 A.M. in neuropathic rats.
EEG and EMG recording. Six days after surgery (16 days post-SNI), mechanical allodynia was assessed via von Frey test, and EEG/EMG was recorded for a period of 6 h (from 6 AM to 12 PM). The treatments (described below) were performed at 6:00 A.M., right after the recording had started. […] Consecutive 10 s epochs were subjected to a fast Fourier transform (FFT), and EEG power spectra density was computed in the frequency range of 0-64 Hz^13.
Analysis of EEG and EMG data. The three classical vigilance states as described in the rat were discriminated on the basis of the cortical EEG and neck EMG activities. […]

The subject of assay [3] is neuropathic rats. Briefly: Sleep fragmentation analysis (Sleep Fragmentation Index). To be noted: NP rats; CBD 20 mg/kg i.p.; vs NP+VEH. The assay is classed as in vivo, male Wistar rats. As to the method: Sleep fragmentation analysis. Sleep Fragmentation Index (SFI) is determinant of excessive daytime sleepiness as it is characterized by repetitive short interruptions of sleep by periods of wakefulness. […] In this study, SFI is calculated as the total number of wakefulness episodes in 24 h divided by the total sleep time in hours during 24 h (REM+NREM).

Assay [4] has as its system naïve animals. As to conditions: cited from earlier work.
Assay [5] has as its system rats. To be noted: cited from earlier work.
The test system of assay [6] is healthy rats. To be noted: intracerebroventricular injection 10 μg/5 μL; cited from earlier work.
Where [7] appears, read: 6 h EEG/EMG, i.p., CBD 20 mg/kg, WAY 100635 2 mg/kg.
Where [8] appears, read: NP rats, 6 h EEG/EMG, i.p., CBD 20 mg/kg, rimonabant 1 mg/kg.
Setting [9] is: naïve animals, acute systemic 20 mg/kg.

Structures are written as SMILES. “Also recorded” adds a separate entry of the source.

In the case of `C=C(C)[C@@H]1CCC(C)=C[C@H]1c1c(O)cc(CCCCC)cc1O` [CBD, 2-[(1R,6R)-3-methyl-6-prop-1-en-2-ylcyclohex-2-en-1-yl]-5-pentylbenzene-1,3-diol], the “AUC of the antiallodynic effect” value in assay [1] (10 mg/kg vs 20 mg/kg) is “not statistically different”. For the same compound, the “AUC of the antiallodynic effect” value in assay [1] (20 mg/kg group vs CBD 5 mg/kg (p<0.001) and vs vehicle (p<0.001)) was “significantly higher”. The antiallodynic effect result in assay [1] (SNI rats, 5 mg/kg i.p.) is listed as “did not show any antiallodynic effect”. The “reversal of mechanical allodynia” value in assay [1] (SNI rats, 10 mg/kg i.p., between 2 h and 4.5 h (p<0.05)) is on record as “able to reverse mechanical allodynia”. Moreover, in assay [1] (SNI rats, 20 mg/kg i.p., between 1 h and 5 h (p<0.05)), the “reversal of mechanical allodynia” value is “able to reverse mechanical allodynia”. Further, in assay [1] (SNI rats, CBD 5, 10 and 20 mg/kg intraperitoneally, 0.5-7.5 hours, vs vehicle), the “paw withdrawal threshold / mechanical allodynia, dose dependence” value is “increasing the paw withdrawal threshold in a dose-dependent manner; also recorded: reduces mechanical allodynia in a dose-dependent manner; also recorded: reduces neuropathic pain”. Moreover, the “duration of antiallodynic effects post-administration” value in assay [1] (SNI rats, CBD i.p.) is on record as “up to 4 hours”. Further, in assay [2] (setting [7]), the “total NREM sleep, relative to NP rats treated with vehicle” value is “able to reverse NREM sleep impairments; also recorded: restored NREM sleep” and the “total time of wakefulness, relative to NP rats treated with vehicle” value was “decrease in the amount of time spent in wakefulness; also recorded: decreased wakefulness”. In addition, the “REM sleep (total time), relative to NP rats treated with vehicle” value in assay [2] (6 h EEG/EMG, i.p., CBD 20 mg/kg, WAY 100635 2 mg/kg, rimonabant 1 mg/kg) is reported as “restored the normal REM sleep”. For the same compound, in assay [2] (NP rats, 6 h EEG/EMG, CBD 20 mg/kg i.p.), the “NREM sleep, relative to naïve animals treated with vehicle” value is given as “no difference was detected”. Moreover, in assay [2] (setting [8]), the “REM sleep, relative to naïve animals treated with vehicle” value was “no difference was detected” and the “wakefulness, relative to naïve animals treated with vehicle” value is “no difference was detected”. The “reversal of sleep perturbations induced by neuropathic pain (sleep-wake cycle)” value in assay [2] (NP rats, i.p., CBD 20 mg/kg, rimonabant 1 mg/kg) is given as “Reverses the Sleep Perturbations; also recorded: restored the normal sleep-wake cycle; also recorded: restores the impaired sleep in a dose-dependent manner”. Also, the “sleep fragmentation (sleep fragmentation index, SFI)” value in assay [3] is listed as “decrease of the sleep fragment index (SFI) to normal levels; also recorded: attenuates the sleep fragmentation”. Besides, in assay [4] (setting [9]), the “sleep duration and sleep parameters” value was “no significant effect”; the “slow-wave sleep (SWS) latency” value was “reduced slow-wave sleep (SWS) latency”. Also, in assay [4] (single doses of 40 mg/kg), the REM sleep entry is reported as “without affecting REM sleep”, the SWS result is reported as “increased SWS” and the SWS latency result was “decreased SWS latency”. The “increase in SWS duration” value in assay [5] (CBD dose of 40 mg/kg) is reported as “not statistically significant”. For the same compound, in assay [5] (CBD doses of 10 and 40 mg/kg), the “total percentage of sleep” value is “significantly increased”. Also, in assay [6], the REM sleep result is reported as “decrease in REM sleep” and the wakefulness result is “increase in wakefulness”.

These data come from US20230172874A1, “USE OF CANNABIDIOL FOR THE TREATMENT OF INSOMNIA ASSOCIATED TO PAIN” (priority 2021, published 2023).
